Data as given in PMC8699473, “An Easily Expandable Multi-Drug LC-MS Assay for the Simultaneous Quantification of 57 Oral Antitumor Drugs in Human Plasma” (Cancers, 2021).

Experiment: Long-term stability in spiked pooled human plasma

SMILES | Long-term stability, 1 month, -80°C Accuracy [%] (validation standard 2xLLOV) | Long-term stability, 2 month, -20°C Accuracy [%] (validation standard 2xLLOV) | Long-term stability, 2 month, -80°C Accuracy [%] (validation standard 2xLLOV) | Long-term stability, 3 month, -80°C Accuracy [%] (validation standard 2xLLOV) | Long-term stability, 6 weeks, 4°C, without daylight Accuracy [%] (validation standard 2xLLOV) | Long-term stability, 1 month, -20°C Accuracy [%] (validation standard LLOV) | Long-term stability, 1 month, -80°C Accuracy [%] (validation standard LLOV) | Long-term stability, 2 month, -20°C Accuracy [%] (validation standard LLOV) | Long-term stability, 2 month, -80°C Accuracy [%] (validation standard LLOV) | Long-term stability, 3 month, -80°C Accuracy [%] (validation standard LLOV) | Long-term stability, 6 weeks, 4°C, without daylight Accuracy [%] (validation standard LLOV) | Long-term stability, 1 month, -80°C Accuracy [%] (validation standard MOV) | Long-term stability, 2 month, -20°C Accuracy [%] (validation standard MOV) | Long-term stability, 2 month, -80°C Accuracy [%] (validation standard MOV) | Long-term stability, 3 month, -80°C Accuracy [%] (validation standard MOV) | Long-term stability, 6 weeks, 4°C, without daylight Accuracy [%] (validation standard MOV) | Long-term stability, 1 month, -20°C Accuracy [%] (validation standard ULOV) | Long-term stability, 1 month, -80°C Accuracy [%] (validation standard ULOV) | Long-term stability, 2 month, -20°C Accuracy [%] (validation standard ULOV) | Long-term stability, 2 month, -80°C Accuracy [%] (validation standard ULOV) | other results
CS(=O)(=O)CCNCc1ccc(-c2ccc3ncnc(Nc4ccc(OCc5cccc(F)c5)c(Cl)c4)c3c2)o1 [Lapatinib] | 92.2% | 84.4% | 102.3% | 96.3% | 34.8% | 85.5% | 91.6% | 80.7% | 98.5% | 95.3% | 28.2% | 97.6% | 93.7% | 103.0% | 101.0% | 101.1% | 96.6% | 94.5% | 101.5% | 100.9% | Long-term stability, 1 month, -20°C Accuracy [%] (validation standard 2xLLOV): 91.4%; Long-term stability, 3 month, -20°C Accuracy [%] (validation standard 2xLLOV): 72.0%; Long-term stability, 3 month, -20°C Accuracy [%] (validation standard LLOV): 55.4%; Long-term stability, 1 month, -20°C Accuracy [%] (validation standard MOV): 95.3%; Long-term stability, 3 month, -20°C Accuracy [%] (validation standard MOV): 78.1%; Long-term stability, 3 month, -20°C Accuracy [%] (validation standard ULOV): 95.4%; Long-term stability, 3 month, -80°C Accuracy [%] (validation standard ULOV): 96.7%; Long-term stability, 6 weeks, 4°C, without daylight Accuracy [%] (validation standard ULOV): 99.9%
CCCS(=O)(=O)Nc1ccc(F)c(C(=O)c2c[nH]c3ncc(-c4ccc(Cl)cc4)cc23)c1F [Vemurafenib] | 105.7% | 110.6% | 108.1% | 105.9% | 86.3% | 105.8% | 101.6% | 104.5% | 98.7% | 114.9% | 85.9% | 106.7% | 116.1% | 119.1% | 96.8% | 97.8% | 104.7% | 101.7% | 119.0% | 112.7% | Long-term stability, 1 month, -20°C Accuracy [%] (validation standard 2xLLOV): 102.1%; Long-term stability, 3 month, -20°C Accuracy [%] (validation standard 2xLLOV): 97.3%; Long-term stability, 3 month, -20°C Accuracy [%] (validation standard LLOV): 106.2%; Long-term stability, 1 month, -20°C Accuracy [%] (validation standard MOV): 104.9%; Long-term stability, 3 month, -20°C Accuracy [%] (validation standard MOV): 92.9%; Long-term stability, 3 month, -20°C Accuracy [%] (validation standard ULOV): 89.5%; Long-term stability, 3 month, -80°C Accuracy [%] (validation standard ULOV): 100.8%; Long-term stability, 6 weeks, 4°C, without daylight Accuracy [%] (validation standard ULOV): 94.4%
CN(C)C(=O)c1cc2cnc(Nc3ccc(N4CCNCC4)cn3)nc2n1C1CCCC1 [Ribociclib] | 98.5% | 109.0% | 112.4% | 106.4% | 96.4% | 88.0% | 83.5% | 92.7% | 94.7% | 90.7% | 76.6% | 101.3% | 108.6% | 108.1% | 104.3% | 107.4% | 91.9% | 90.7% | 98.7% | 98.8% | Long-term stability, 3 month, -80°C Accuracy [%] (validation standard ULOV): 92.7%; Long-term stability, 6 weeks, 4°C, without daylight Accuracy [%] (validation standard ULOV): 96.3%
COc1cc2ncnc(Nc3ccc(F)c(Cl)c3)c2cc1OCCCN1CCOCC1 [Gefitinib] | 94.2% | 105.6% | 108.5% | 101.3% | 89.3% | 95.8% | 89.0% | 101.3% | 102.7% | 99.5% | 78.5% | 99.3% | 105.1% | 104.1% | 99.9% | 105.7% | 98.5% | 93.5% | 99.2% | 101.3% | Long-term stability, 1 month, -20°C Accuracy [%] (validation standard 2xLLOV): 99.2%; Long-term stability, 3 month, -20°C Accuracy [%] (validation standard 2xLLOV): 103.9%; Long-term stability, 3 month, -20°C Accuracy [%] (validation standard LLOV): 100.2%; Long-term stability, 1 month, -20°C Accuracy [%] (validation standard MOV): 100.7%; Long-term stability, 3 month, -20°C Accuracy [%] (validation standard MOV): 102.7%; Long-term stability, 3 month, -20°C Accuracy [%] (validation standard ULOV): 99.2%; Long-term stability, 3 month, -80°C Accuracy [%] (validation standard ULOV): 99.2%; Long-term stability, 6 weeks, 4°C, without daylight Accuracy [%] (validation standard ULOV): 97.6%
CN(C)C/C=C/C(=O)Nc1cc2c(Nc3ccc(F)c(Cl)c3)ncnc2cc1O[C@H]1CCOC1 [Afatinib] | 90.7% | 72.1% | 92.5% | 94.1% | 26.7% | 70.0% | 75.4% | 68.4% | 85.8% | 90.0% | 2.9% | 93.1% | 84.4% | 96.0% | 96.4% | 44.2% | 86.5% | 91.2% | 88.3% | 96.0% | Long-term stability, 1 month, -20°C Accuracy [%] (validation standard 2xLLOV): 79.7%; Long-term stability, 3 month, -20°C Accuracy [%] (validation standard 2xLLOV): 76.9%; Long-term stability, 3 month, -20°C Accuracy [%] (validation standard LLOV): 68.4%; Long-term stability, 1 month, -20°C Accuracy [%] (validation standard MOV): 87.9%; Long-term stability, 3 month, -20°C Accuracy [%] (validation standard MOV): 78.2%; Long-term stability, 3 month, -20°C Accuracy [%] (validation standard ULOV): 82.8%; Long-term stability, 3 month, -80°C Accuracy [%] (validation standard ULOV): 92.1%; Long-term stability, 6 weeks, 4°C, without daylight Accuracy [%] (validation standard ULOV): 37.3%
O=C(c1ccc(F)c(F)c1Nc1ccc(I)cc1F)N1CC(O)([C@@H]2CCCCN2)C1 [Cobimetinib] | 93.9% | 98.0% | 103.4% | 97.6% | 94.8% | 101.1% | 99.0% | 99.0% | 97.9% | 100.3% | 94.5% | 96.8% | 100.8% | 103.3% | 98.4% | 108.3% | 100.6% | 97.3% | 104.5% | 103.6% | Long-term stability, 1 month, -20°C Accuracy [%] (validation standard 2xLLOV): 100.8%; Long-term stability, 3 month, -20°C Accuracy [%] (validation standard 2xLLOV): 99.0%; Long-term stability, 3 month, -20°C Accuracy [%] (validation standard LLOV): 101.3%; Long-term stability, 1 month, -20°C Accuracy [%] (validation standard MOV): 98.9%; Long-term stability, 3 month, -20°C Accuracy [%] (validation standard MOV): 99.2%; Long-term stability, 3 month, -20°C Accuracy [%] (validation standard ULOV): 100.6%; Long-term stability, 3 month, -80°C Accuracy [%] (validation standard ULOV): 98.3%; Long-term stability, 6 weeks, 4°C, without daylight Accuracy [%] (validation standard ULOV): 102.4%
